Source: ChEMBL document CHEMBL1201862, “PubChem BioAssay data set” (2004)
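Five concentrations, 48 hours, 96-well plates. Abbreviation: GI50, concentration required for 50% inhibition of growth.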 Active and inactive are the calls of the source. Cut-off read from the data, not from the text of the source: active = GI50 up to about 1.1 µM and inactive = higher.

Experiments:
Assay in all cases: NCI-60 cell line screen, 48 h
786-0 = tested on: 786-0
A498 = tested on: A498
A549 = tested on: A549
ACHN = tested on: ACHN
CAKI-1 = tested on: CAKI-1
COLO 205 = tested on: COLO 205
DLD-1 = tested on: DLD-1
DMS-114 = tested on: DMS-114
DMS-273 = tested on: DMS-273
EKVX = tested on: EKVX
HCC 2998 = tested on: HCC 2998
HCT-116 = tested on: HCT-116
HCT-15 = tested on: HCT-15
HL-60 = tested on: HL-60
HOP-18 = tested on: HOP-18
HOP-62 = tested on: HOP-62
HOP-92 = tested on: HOP-92
HT-29 = tested on: HT-29
IGROV-1 = tested on: IGROV-1
K562 = tested on: K562
KM-20L2 = tested on: KM-20L2
KM12 = tested on: KM12
LXFL 529 = tested on: LXFL 529
M14 = tested on: M14
M19-MEL = tested on: M19-MEL
MOLT-4 = tested on: MOLT-4
Malme-3M = tested on: Malme-3M
NCI-H226 = tested on: NCI-H226
NCI-H23 = tested on: NCI-H23
NCI-H460 = tested on: NCI-H460
NCI-H522 = tested on: NCI-H522
OVCAR-3 = tested on: OVCAR-3
OVCAR-4 = tested on: OVCAR-4
OVCAR-5 = tested on: OVCAR-5
OVCAR-8 = tested on: OVCAR-8
RPMI-8226 = tested on: RPMI-8226
RXF 393 = tested on: RXF 393
RXF 631 = tested on: RXF 631
SF-268 = tested on: SF-268
SF-295 = tested on: SF-295
SF-539 = tested on: SF-539
SK-MEL-2 = tested on: SK-MEL-2
SK-MEL-5 = tested on: SK-MEL-5
SK-OV-3 = tested on: SK-OV-3
SN12C = tested on: SN12C
SNB-19 = tested on: SNB-19
SNB-75 = tested on: SNB-75
SNB-78 = tested on: SNB-78
SR = tested on: SR
SW-620 = tested on: SW-620
TK-10 = tested on: TK-10
U-251 = tested on: U-251
UACC-257 = tested on: UACC-257
UACC-62 = tested on: UACC-62
UO-31 = tested on: UO-31
XF498 = tested on: XF498

Measured: GI50

C[n+]1c2ccccc2c(NC(CS)C(=O)O)c2ccccc21 (stereo unspecified)
28.1 µM: HCT-15
inactive: 786-0 24 µM | A498 15.6 µM | A549 22.6 µM | ACHN 36.5 µM | CAKI-1 28.5 µM | COLO 205 30.1 µM | DLD-1 23.1 µM | DMS-114 29.2 µM | DMS-273 22.1 µM | EKVX 24.4 µM | HCC 2998 32.9 µM | HCT-116 13.5 µM | HL-60 17.6 µM | HOP-18 12 µM | HOP-62 30.3 µM | HOP-92 20.2 µM | HT-29 28.9 µM | IGROV-1 25.4 µM | K562 28.6 µM | KM-20L2 29.4 µM | KM12 18.6 µM | LXFL 529 20.4 µM | M14 27.5 µM | M19-MEL 27.4 µM | MOLT-4 13.8 µM | Malme-3M 24.2 µM | NCI-H226 45 µM | NCI-H23 32 µM | NCI-H460 29.8 µM | NCI-H522 20.3 µM | OVCAR-3 17.7 µM | OVCAR-4 29.8 µM | OVCAR-5 74.1 µM | OVCAR-8 19.4 µM | RPMI-8226 18.6 µM | RXF 393 22.3 µM | RXF 631 37.2 µM | SF-268 19.8 µM | SF-295 19.9 µM | SF-539 20.7 µM | SK-MEL-2 28.2 µM | SK-MEL-5 17.3 µM | SK-OV-3 23.3 µM | SN12C 52 µM | SNB-19 40.6 µM | SNB-75 24.2 µM | SNB-78 45.2 µM | SR 16.4 µM | SW-620 39.3 µM | TK-10 36.6 µM | U-251 24.5 µM | UACC-257 33.7 µM | UACC-62 15.2 µM | UO-31 16.2 µM | XF498 18.4 µM
